pIC50: −log10 of the molar value. Calls of active or inactive are those of the source. The calls are words filed in the database; no cut-off is given here.
Tests used:
PC-12 = experiment: Neurite-outgrowth promoting activity in NGF-differentiated rat PC12 cells assessed as cell differentiation at 10 uM after 72 hrs by phase contrast microscopic method (reference value: 4.72 +/- 1.18%); assay type: functional, cell-based
Acetylcholinesterase = Acetylcholinesterase (Homo sapiens, UniProt P22303); experiment: Inhibition of AchE (unknown origin) using acetylthiocholine iodide as substrate preincubated for 20 mins followed by substrate addition and measured every 20 secs for 20 times by Ellman's assay
Sequence of Acetylcholinesterase (P22303 whole entry): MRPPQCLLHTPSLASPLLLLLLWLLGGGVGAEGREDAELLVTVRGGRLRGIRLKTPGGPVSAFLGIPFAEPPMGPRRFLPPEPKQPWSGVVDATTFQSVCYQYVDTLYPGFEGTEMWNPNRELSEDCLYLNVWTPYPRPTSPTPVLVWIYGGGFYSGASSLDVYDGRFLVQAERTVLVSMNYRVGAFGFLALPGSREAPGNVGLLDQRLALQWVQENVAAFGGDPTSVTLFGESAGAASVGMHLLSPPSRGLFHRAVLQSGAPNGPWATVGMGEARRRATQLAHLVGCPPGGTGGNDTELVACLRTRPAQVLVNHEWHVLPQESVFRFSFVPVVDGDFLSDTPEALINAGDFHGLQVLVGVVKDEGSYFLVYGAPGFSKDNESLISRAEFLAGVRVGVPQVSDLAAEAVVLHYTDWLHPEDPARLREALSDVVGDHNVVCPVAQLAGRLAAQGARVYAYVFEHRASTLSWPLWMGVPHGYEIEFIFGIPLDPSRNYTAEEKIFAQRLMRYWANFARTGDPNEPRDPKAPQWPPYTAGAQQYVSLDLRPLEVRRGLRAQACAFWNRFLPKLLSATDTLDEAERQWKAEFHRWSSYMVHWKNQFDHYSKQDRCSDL

HepG2 [1] = experiment: Increase in LXRalpha mRNA level in human HepG2 cells at 20 to 40 uM after 24 hrs by qPCR analysis; assay type: functional, cell-based
HepG2 [2] = experiment: Increase in ABCG1 expression in human HepG2 cells at 20 to 40 uM after 24 hrs by Western blot analysis; assay type: functional, cell-based
HepG2 [3] = experiment: Cytotoxicity against human HepG2 cells assessed as effect on cell viability at 10 to 160 uM after 48 hrs by MTT assay; assay type: cell-based; details: hepg2, 48 h
HepG2 [4] = experiment: Increase in PPARgamma mRNA level in human HepG2 cells at 20 to 40 uM after 24 hrs by qPCR analysis; assay type: functional, cell-based
HepG2 [5] = experiment: Increase in LDLR expression in human HepG2 cells at 20 to 40 uM after 24 hrs by Western blot analysis; assay type: functional, cell-based
HepG2 [6] = experiment: Increase in ABCG1 mRNA level in human HepG2 cells at 20 to 40 uM after 24 hrs by qPCR analysis; assay type: functional, cell-based
HepG2 [7] = experiment: Decrease in HMGCR expression in human HepG2 cells at 20 to 40 uM after 24 hrs by Western blot analysis; assay type: functional, cell-based
HepG2 [8] = experiment: Reduction in lipid accumulation in human HepG2 cells after 24 hrs by Oil-red O staining based microscopic analysis; assay type: functional, cell-based
HepG2 [9] = experiment: Decrease in SREBP2 mRNA level in human HepG2 cells at 20 to 40 uM after 24 hrs by qPCR analysis; assay type: functional, cell-based
HepG2 [10] = experiment: Decrease in HMGCR mRNA level in human HepG2 cells at 20 to 40 uM after 24 hrs by qPCR analysis; assay type: functional, cell-based
HepG2 [11] = experiment: Increase in PPARgamma expression in human HepG2 cells at 20 to 40 uM after 24 hrs by Western blot analysis; assay type: functional, cell-based

COC(=O)/C(=C\C(=O)c1cc(O)ccc1O)CC/C=C(\C)CCC=C(C)C
Activity (PC-12): 10.95% | pIC50 (Acetylcholinesterase): 5.09

CC1(C)Oc2ccc(O)cc2C2=C1CCC(C(=O)O)=C2
Activity (PC-12): 4.89%

C/C(=C\CCC1=C[C@@H](c2cc(O)ccc2O)OC1=O)CCC=C(CO)CO
Activity (PC-12): 6.19%

C/C(=C/CCC1=C[C@@H](c2cc(O)ccc2O)OC1=O)CO
Activity (PC-12): 12.31%

C/C(=C/CC[C@H](CO)c1cc2cc(O)c(O)cc2o1)CO
Activity (PC-12): 7.11% | pIC50 (Acetylcholinesterase): 4.54

C/C(=C\CCC1=C[C@H](c2cc(O)ccc2O)OC1=O)CCC=C(CO)CO
Activity (PC-12): 6.72%

O=C(O)CC1(CC(=O)c2cc(O)ccc2O)C=C(CO)CCC1 (stereo not drawn)
Activity (PC-12): 5.97% | pIC50 (Acetylcholinesterase): 4.59

COC(=O)/C(=C\C(=O)c1cc(O)ccc1O)CC/C=C(\C)CCC=C(CO)CO
Activity (PC-12): 5.32%

C/C(=C/CCC1=C[C@H](c2cc(O)ccc2O)OC1=O)CO
Activity (PC-12): 11.67%

C/C1=C\CCC2=CC(c3cc(O)ccc3O)(OC/C(CO)=C/CC1)OC2=O (stereo not drawn)
Activity (HepG2 [1]): Active | Activity (HepG2 [2]): Active | Activity (HepG2 [3]): Non-Toxic | Activity (HepG2 [4]): Active | Activity (HepG2 [5]): Active | Activity (HepG2 [6]): Active | Activity (HepG2 [7]): Active | Activity (HepG2 [8]): Dose-dependent effect | Activity (HepG2 [9]): Active | Activity (HepG2 [10]): Active | Activity (HepG2 [11]): Active
